The test system of this series is Yap1 mRNA. In words: Antisense inhibition of human Yap1 in A-431 cells by cEt gapmers, single dose (Example 2, RTS4814). The format is cell-based. As for the experimental part: Modified oligonucleotides were designed to target a Yap1 nucleic acid and were tested for their effect on Yap1 mRNA level in vitro. The modified oligonucleotides were tested in a series of experiments that had similar culture conditions. Cultured A-431 cells at a density of 5,000 cells per well were treated using free uptake with 2,000 nM of modified oligonucleotide. After a treatment period of approximately 48 hours, RNA was isolated from the cells and Yap1 mRNA levels were measured by quantitative real-time RTPCR. Human primer probe set RTS4814 was used to measure mRNA levels. Yap1 mRNA levels were normalized to total RNA content, as measured by RIBOGREEN®. Results are presented in the tables below as percent control of the amount of Yap1 mRNA relative to untreated control cells (% UTC). The modified oligonucleotides with percent control values marked with an asterisk (*) target the amplicon region of the primer probe set. Additional assays may be used to measure the potency and efficacy of the modified oligonucleotides targeting the amplicon region.
The newly designed modified oligonucleotides in the Tables below were designed as 3-10-3 cEt gapmers. The gapmers are 16 nucleosides in length, wherein the central gap segment comprises of ten 2′-deoxynucleosides and is flanked by wing segments on the 5′ direction and the 3′ direction comprising three nucleosides each. Each nucleoside in the 5′ wing segment and each nucleoside in the 3′ wing segment has a cEt sugar modification. The internucleoside linkages throughout each gapmer are phosphorothioate (P═S) linkages. All cytosine residues throughout each gapmer are 5-methylcytosines.
“Start site” indicates the 5′-most nucleoside to which the gapmer is targeted in the human gene sequence. “Stop site” indicates the 3′-most nucleoside to which the gapmer is targeted human gene sequence. […] Activity ofthe modified oligonucleotide may be defined in a different experiment.

[1] abbreviates: Table 20, Yap1 mRNA, percent of untreated control, 3-10-3 cEt gapmers targeting SEQ ID NO.: 1 and 2.
Where [2] appears, read: Table 23, Yap1 mRNA as percent of untreated control, 3-10-3 cEt gapmers, single dose.
Where [3] appears, read: Table 25, Yap1 mRNA as percent of untreated control, 3-10-3 cEt gapmers targeting SEQ ID NO.: 1, and 2.
Setting [4] is: Table 21, Yap1 mRNA, percent of untreated control, 3-10-3 cEt gapmers targeting SEQ ID NO.: 1 and 2.
Setting [5] is: Yap1 mRNA as percent of untreated control, A-431 cells, 3-10-3 cEt gapmers targeting SEQ ID NO.: 1, and 2, Table 31.
The mark [6] stands for this setting: Yap1 mRNA as percent of untreated control, A-431 cells, 3-10-3 cEt gapmers targeting SEQ ID NO.: 1, and 2, Table 30.
[7] abbreviates: A-431 cells, 5,000 cells per well, free uptake, 2,000 nM modified oligonucleotide, approx. 48 hours, RTS4814, normalized to RIBOGREEN, Table 4, asterisk (*) = targets amplicon region of primer probe set.
Setting [8] is: Table 6, A-431 cells, 5,000 cells per well, free uptake, 2,000 nM modified oligonucleotide, approx. 48 hours, RTS4814, normalized to RIBOGREEN, Yap1 mRNA relative to untreated control cells.
Where [9] appears, read: Table 32, Yap1 mRNA, percent of untreated control, 3-10-3 cEt gapmers targeting SEQ ID NO.: 1, and 2.
Where [10] appears, read: Table 18, A-431 cells, 5,000 cells per well, free uptake, 2,000 nM modified oligonucleotide, approx. 48 hours, RTS4814, normalized to RIBOGREEN, Yap1 mRNA as percent of untreated control.

38 substances from US11214803B2, “Modulators of YAP1 expression” (Ionis Pharmaceuticals, Inc., priority 2019, dated 2022) can be followed below.

Strand notation (5' to 3'): a small letter for the sugar, then the base; units joined by * are phosphorothioate-linked, units joined directly phosphodiester-linked; [ ] holds rarer units or linkages, { } end groups; capitals alone tell only the bases. k = constrained ethyl (cEt); [5mC] = 5-methylcytosine; d = 2'-deoxy (DNA)

For “1076518 (antisense kG*kA*kT*dA*dA*dG*d[5mC]*dA*d[5mC]*d[5mC]*dA*d[5mC]*d[5mC]*kA*kT*kA) [Compound 1076518]”, the “YAP1 (% UTC)” value under setting [1] came out at 25 % UTC.
For “1074505 (kA*kA*kT*d[5mC]*dG*dA*dG*dA*dT*dT*dT*dA*dA*kA*kT*kA; antisense) [Compound 1074505]”, the “YAP1 (% UTC)” value under setting [2] came out at 83 % UTC.
As for “1075083 (antisense k[5mC]*kA*kA*d[5mC]*dA*dA*d[5mC]*dA*d[5mC]*dT*d[5mC]*d[5mC]*dT*k[5mC]*kT*kT) [Compound 1075083]”, the “YAP1 (% UTC)” value under setting [3] is recorded as 54 % UTC.
Still for that read-out and setting: then “1074731 (antisense k[5mC]*kA*kG*dG*dT*dA*dT*d[5mC]*dA*d[5mC]*dA*dG*dT*kA*k[5mC]*kT) [Compound 1074731]”, with 19 % UTC.
With “1076295 (kG*kT*kA*dT*dA*dT*dT*dA*dG*dT*dG*d[5mC]*d[5mC]*k[5mC]*k[5mC]*k[5mC]; antisense) [Compound 1076295]”, the “YAP1 (% UTC)” value under setting [4] worked out at 2 % UTC.
As for “1074353 (antisense kG*kA*k[5mC]*dA*d[5mC]*dT*dG*dT*dA*dG*d[5mC]*dT*dG*k[5mC]*kT*k[5mC]) [compound 1074353]”, the “YAP1 (% UTC)” value under setting [5] is 17 % UTC.
The same measure, in the same setting: to “1076529 (k[5mC]*kT*kA*dT*dA*dA*dT*dG*dA*dG*dG*dA*dT*kT*kA*k[5mC]; antisense) [compound 1076529]” belongs 108 % UTC.
Take “1075595 (kT*kA*kT*dA*dA*dT*dA*d[5mC]*dA*dT*d[5mC]*dT*d[5mC]*k[5mC]*k[5mC]*k[5mC]; antisense) [Compound 1075595]”: under setting [3], the “YAP1 (% UTC)” value turned out to be 50 % UTC.
Consider “1075632 (antisense kT*k[5mC]*k[5mC]*d[5mC]*dT*dA*dT*dA*dA*d[5mC]*d[5mC]*dA*dA*kA*kT*kG) [compound 1075632]”, for which the “YAP1 (% UTC)” value under setting [6] worked out at 95 % UTC.
Take “1074411 (antisense kT*kG*kT*dG*dA*dA*dA*dG*dA*dG*dG*dT*d[5mC]*kA*kG*k[5mC]) [Compound 1074411]”: the “YAP1 (% UTC)” value under setting [3] is given as 3 % UTC.
As to “1074951 (antisense k[5mC]*kA*kT*d[5mC]*dA*dG*dG*dT*dT*dA*dA*dG*dT*kG*kA*kT) [Compound 1074951]”, the “YAP1 (% UTC)” value under setting [4] came out at 85 % UTC.
With “1074993 (antisense kT*k[5mC]*kT*dA*dA*dT*d[5mC]*dA*dA*d[5mC]*dA*d[5mC]*dT*kG*kG*kA) [compound 1074993]”, the “YAP1 (% UTC)” value under setting [5] was 65 % UTC.
For “1075273 (antisense kA*kA*kA*dT*dT*dA*dT*dG*dG*dT*d[5mC]*dA*dG*kG*k[5mC]*kT) [Compound 1075273]”, under setting [2], the “YAP1 (% UTC)” value is 18 % UTC.
Take “1074887 (antisense kT*kA*kG*d[5mC]*d[5mC]*dT*dG*dA*dA*dG*d[5mC]*dA*dA*kG*kT*kT) [Compound 1074887]”: the “YAP1 (% UTC)” value under setting [4] is reported as 57 % UTC.
With “1076011 (kA*kT*kA*dT*dA*dA*dA*d[5mC]*dA*dA*dT*dA*dG*k[5mC]*kG*kA; antisense) [Compound 1076011]”, the “YAP1 (% UTC)” value under setting [3] is on record as 61 % UTC.
The same measure, in the same setting: then “1075307 (kA*kT*kT*dA*dA*dA*d[5mC]*dG*dA*dA*dA*d[5mC]*dA*k[5mC]*kG*kG; antisense) [Compound 1075307]”, with 28 % UTC.
With “1074192 (antisense kG*kA*k[5mC]*dG*dG*d[5mC]*dG*dG*dG*d[5mC]*d[5mC]*d[5mC]*dT*kG*k[5mC]*k[5mC]) [compound 1074192]”, under setting [6], the “YAP1 (% UTC)” value is on record as 108 % UTC.
Consider “716568 (kG*kA*kT*dT*dT*dT*dT*dT*d[5mC]*dT*dG*dA*dG*kT*kT*k[5mC]; antisense) [Compound 716568]”, for which, under setting [7], the “YAP1 (% UTC)” value was 72 % UTC.
As to “716420 (k[5mC]*kA*kA*d[5mC]*dT*dG*dG*d[5mC]*dT*dT*dA*dT*dG*kG*kA*kA; antisense) [Compound 716420]”, the “YAP1 (% UTC)” value under setting [8] came out at 50 % UTC.
On to “1075122 (kG*kA*kA*dA*dA*dT*dT*dA*dG*d[5mC]*d[5mC]*dT*dA*k[5mC]*k[5mC]*kA; antisense) [compound 1075122]”, for which the “YAP1 (% UTC)” value under setting [9] came out at 16 % UTC.
As to “1076018 (kA*k[5mC]*kT*dA*dA*dT*dA*dG*dG*dA*dT*dG*dG*kA*kT*kT; antisense) [compound 1076018]”, under setting [9], the “YAP1 (% UTC)” value came out at 15 % UTC.
Take “1076358 (kG*kT*kT*dT*dA*dA*d[5mC]*dA*dA*dA*d[5mC]*dT*dT*kG*kT*kA; antisense) [Compound 1076358]”: under setting [1], the “YAP1 (% UTC)” value was found to be 43 % UTC.
On to “1075079 (antisense k[5mC]*kA*k[5mC]*d[5mC]*dA*dA*dA*dA*dG*d[5mC]*dT*dT*dA*kG*kT*kT) [Compound 1075079]”, for which, under setting [4], the “YAP1 (% UTC)” value is on record as 40 % UTC.
“716346 (kT*kT*kT*d[5mC]*d[5mC]*d[5mC]*dT*dG*dG*d[5mC]*dG*dG*d[5mC]*kG*kG*k[5mC]; antisense) [Compound 716346]”: the “YAP1 (% UTC)” value under setting [7] was found to be 77 % UTC.
In the case of “716489 (kA*kG*kT*dT*dA*dA*dT*dT*d[5mC]*dA*dT*dG*d[5mC]*kT*k[5mC]*kG; antisense) [Compound 716489]”, the “YAP1 (% UTC)” value under setting [8] was 23 % UTC.
For “1075847 (k[5mC]*kT*kT*dT*dA*dT*dA*dG*d[5mC]*dA*dG*dA*dT*kG*k[5mC]*k[5mC]; antisense) [Compound 1075847]”, the “YAP1 (% UTC)” value under setting [4] is reported as 14 % UTC.
Consider “1075750 (k[5mC]*kA*kA*dT*dT*dA*dT*dG*dA*dA*dT*dG*dA*kT*kG*kG; antisense) [Compound 1075750]”, for which, under setting [1], the “YAP1 (% UTC)” value is listed as 10 % UTC.
Take “716461 (kA*kT*kA*dA*dA*d[5mC]*dT*dA*d[5mC]*dT*dA*dG*dT*k[5mC]*kA*kT; antisense) [Compound 716461]”: the “YAP1 (% UTC)” value (Table 5, A-431 cells, 5,000 cells per well, free uptake, 2,000 nM modified oligonucleotide, approx. 48 hours, RTS4814, normalized to RIBOGREEN, Yap1 mRNA relative to untreated control cells) is recorded as 123 % UTC.
“1076167 (kA*kA*kA*dT*dT*dT*dA*d[5mC]*dA*d[5mC]*d[5mC]*dA*d[5mC]*k[5mC]*kG*k[5mC]; antisense) [Compound 1076167]”: the “YAP1 (% UTC)” value under setting [4] is 33 % UTC.
On to “1076004 (kT*kA*kA*dT*dT*dT*dA*dA*dT*dG*dG*d[5mC]*dT*kT*kG*k[5mC]; antisense) [Compound 1076004]”, for which the “YAP1 (% UTC)” value under setting [10] turned out to be 2 % UTC.
With “1075347 (antisense k[5mC]*kA*kT*dA*dG*dG*dT*dA*dG*dG*d[5mC]*dA*dA*k[5mC]*kA*kA) [compound 1075347]”, under “Table 33, Yap1 mRNA, percent of untreated control, 3-10-3 cEt gapmers targeting SEQ ID NO.: 1, and 2”, the “YAP1 (% UTC)” value is recorded as 20 % UTC.
For the substance “716552 (kT*kT*kT*d[5mC]*dT*d[5mC]*dA*dG*dA*dT*dG*dT*dA*k[5mC]*k[5mC]*kA; antisense) [Compound 716552]”, the “YAP1 (% UTC)” value under setting [8] turned out to be 53 % UTC.
Turning to “716358 (k[5mC]*kG*kA*dG*dG*dG*d[5mC]*dT*dA*d[5mC]*dG*d[5mC]*d[5mC]*k[5mC]*kG*kG; antisense) [Compound 716358]”, under setting [7], the “YAP1 (% UTC)” value stood at 104 % UTC.
For the substance “1075696 (kT*kT*kA*d[5mC]*dA*dA*dA*dA*dG*dT*dT*dA*d[5mC]*kT*kG*k[5mC]; antisense) [compound 1075696]”, the “YAP1 (% UTC)” value under setting [6] worked out at 28 % UTC.
Consider “1075716 (kG*k[5mC]*k[5mC]*dG*dA*dA*dA*dT*dA*d[5mC]*dT*d[5mC]*dT*k[5mC]*kA*kT; antisense) [Compound 1075716]”, for which, under setting [10], the “YAP1 (% UTC)” value worked out at 19 % UTC.
As to “1076263 (kA*kA*kT*dA*dA*d[5mC]*d[5mC]*dA*dA*dG*dT*dG*dA*kG*kT*kT; antisense) [Compound 1076263]”, the “YAP1 (% UTC)” value under setting [4] turned out to be 21 % UTC.
For “1074565 (antisense kA*k[5mC]*kT*dG*dA*dA*dT*dT*d[5mC]*d[5mC]*dA*dA*dT*k[5mC]*kG*kA) [Compound 1074565]”, the “YAP1 (% UTC)” value (Table 19, A-431 cells, 5,000 cells per well, free uptake, 2,000 nM modified oligonucleotide, approx. 48 hours, RTS4814, normalized to RIBOGREEN, Yap1 mRNA as percent of untreated control) came out at 5 % UTC.
For “1074930 (antisense k[5mC]*kT*kA*dT*dA*d[5mC]*dA*dA*d[5mC]*dA*dG*dG*d[5mC]*k[5mC]*kT*kG) [compound 1074930]”, the “YAP1 (% UTC)” value under setting [9] stood at 84 % UTC.
